Laboratory results: the supplement of paper PMC10307832

Compound: CCN1CCN(c2ccc(Nc3cc(N(C)C(=O)Nc4c(Cl)c(OC)cc(OC)c4Cl)ncn3)cc2)CC1 [BGJ398] + COc1cc2c(Oc3ccc(NC(=O)C4(C(=O)Nc5ccc(F)cc5)CC4)cc3F)ccnc2cc1OCCCN1CCOCC1 [Foretinib] (partner 0.25 µM)
Experiment: relative viability (nuclei count vs DMSO), 5 days (fraction); higher = more cells survive
Conditions: first compound 0.01 µM
Outline: (§1)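 A single step with final 0.05% Triton X-100, 1% formaldehyde and 1 ug/ml Hoechst fixed the cells and stained nuclei 5 days after treatment. Lung cancer cell lines in 1536-well plates had been treated by pin tool the day after seeding with one drug alone or a fixed anchor-drug dose plus five library-drug doses (not always all listed) in √10 steps, and nuclei were counted on 4× images. Relative viability is the ratio of nuclei in treated wells to nuclei in vehicle wells, taken as the median of duplicate plates.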

Cell Line | relative viability
NCI-H1623 | 0.907
NCI-H727 | 1.12
NCI-H1650 | 1.31
EBC-1 | 0.0959
NCI-H1703 | 0.37
NCI-H1993 | 0.833
SW 1573 | 0.91
NCI-H838 | 0.927
LCLC-103H | 0.79
NCI-H520 | 0.777
NCI-H2126 | 1.19
EMC-BAC-2 | 1.12
NCI-H2085 | 1
Calu-6 | 0.879
HCC-366 | 0.924
NCI-H1666 | 1.03

Cell Line | relative viability
NCI-H596 | 0.903
LK-2 | 1.28
NCI-H2087 | 1.05
NCI-H2342 | 1.05
SK-MES-1 | 0.869
H3255 | 0.985
IA-LM | 1.2
A549 | 0.919
SW 900 | 0.856
NCI-H661 | 0.889
NCI-H1299 | 1.09
NCI-H1563 | 0.924
ABC-1 | 0.962
NCI-H358 | 0.61
NCI-H650 | 0.983

Same assay, conditions: first compound 0.03162 µM

Cell Line | relative viability
NCI-H1623 | 0.723
NCI-H727 | 0.773
EBC-1 | 0.0812
NCI-H1703 | 0.329
NCI-H1993 | 0.67
SW 1573 | 1.13
NCI-H838 | 1.08
LCLC-103H | 0.765
NCI-H520 | 0.7
NCI-H2126 | 1.28
EMC-BAC-2 | 1.02
NCI-H2085 | 1.12
Calu-6 | 0.819
HCC-366 | 0.883
NCI-H1666 | 1.01
NCI-H596 | 0.804
LK-2 | 0.947
NCI-H2087 | 1.33
NCI-H2342 | 0.98
SK-MES-1 | 1.08
IA-LM | 1.08
A549 | 0.939
SW 900 | 0.823
NCI-H661 | 1.06
NCI-H1299 | 1.06
NCI-H1563 | 0.931
ABC-1 | 1.19
NCI-H358 | 0.725
NCI-H650 | 1.06

Same assay, conditions: first compound 0.1 µM

Cell Line | relative viability
NCI-H1623 | 0.937
NCI-H727 | 0.822
NCI-H1650 | 1.17
EBC-1 | 0.0909
NCI-H1703 | 0.342
NCI-H1993 | 0.883
SW 1573 | 0.866
NCI-H838 | 0.962
LCLC-103H | 0.755
NCI-H520 | 0.316
NCI-H2126 | 1.26
EMC-BAC-2 | 0.98
NCI-H2085 | 0.909
Calu-6 | 0.912
HCC-366 | 0.944
NCI-H1666 | 0.963

Cell Line | relative viability
NCI-H596 | 0.773
LK-2 | 0.897
NCI-H2087 | 1.18
NCI-H2342 | 1.08
SK-MES-1 | 0.971
H3255 | 0.961
IA-LM | 1.42
A549 | 0.97
SW 900 | 0.895
NCI-H661 | 1.14
NCI-H1299 | 1.09
NCI-H1563 | 0.946
ABC-1 | 1.05
NCI-H358 | 0.682
NCI-H650 | 1.06

Same assay, conditions: first compound 0.3162 µM

Cell Line | relative viability
NCI-H1623 | 0.84
NCI-H727 | 0.848
NCI-H1650 | 0.857
EBC-1 | 0.109
NCI-H1703 | 0.278
NCI-H1993 | 0.842
SW 1573 | 0.594
NCI-H838 | 0.889
LCLC-103H | 0.746
NCI-H520 | 0.25
NCI-H2126 | 1.2
EMC-BAC-2 | 1.05
NCI-H2085 | 0.903
Calu-6 | 0.836
HCC-366 | 0.89
NCI-H1666 | 0.945

Cell Line | relative viability
NCI-H596 | 0.944
LK-2 | 0.618
NCI-H2087 | 1.15
NCI-H2342 | 1.07
SK-MES-1 | 0.809
H3255 | 0.386
IA-LM | 1.15
A549 | 0.944
SW 900 | 0.737
NCI-H661 | 0.932
NCI-H1299 | 1.15
NCI-H1563 | 0.814
ABC-1 | 1.26
NCI-H358 | 0.718
NCI-H650 | 1.04

Same assay, conditions: first compound 1 µM

Cell Line | relative viability
NCI-H1623 | 0.713
NCI-H727 | 0.927
NCI-H1650 | 1.08
EBC-1 | 0.108
NCI-H1703 | 0.331
NCI-H1993 | 0.735
SW 1573 | 0.973
NCI-H838 | 0.914
LCLC-103H | 0.541
NCI-H520 | 0.236
NCI-H2126 | 1.12
EMC-BAC-2 | 0.992
NCI-H2085 | 0.781
Calu-6 | 0.88
HCC-366 | 1.08
NCI-H1666 | 1.01

Cell Line | relative viability
NCI-H596 | 0.779
LK-2 | 0.309
NCI-H2087 | 1.09
NCI-H2342 | 1.1
SK-MES-1 | 1.12
H3255 | 0.878
IA-LM | 1.14
A549 | 1.09
SW 900 | 0.668
NCI-H661 | 0.982
NCI-H1299 | 1.03
NCI-H1563 | 0.752
ABC-1 | 0.973
NCI-H358 | 0.951
NCI-H650 | 0.928

Compound: C1=CC2=NC=CN=C2C=C1/C=C/3\C(=O)NC(=O)S3 + CC1(C)CCC(c2ccc(Cl)cc2)=C(CN2CCN(c3ccc(C(=O)NS(=O)(=O)c4ccc(N[C@H](CCN5CCOCC5)CSc5ccccc5)c(S(=O)(=O)C(F)(F)F)c4)cc3)CC2)C1 [Navitoclax] (partner 0.5 µM)
Experiment: as above
Conditions: first compound 0.02 µM
Outline: as §1

Cell Line | relative viability
NCI-H727 | 0.499
NCI-H1650 | 1.23
EBC-1 | 0.43
NCI-H1703 | 1.19
NCI-H1993 | 0.759
SW 1573 | 0.879
NCI-H838 | 1.1
NCI-H520 | 1.15
NCI-H2126 | 0.739
EMC-BAC-2 | 1.11
NCI-H2085 | 1.09
Calu-6 | 0.848
HCC-366 | 1.1
NCI-H1666 | 0.9
NCI-H596 | 0.902
LK-2 | 0.791
NCI-H2087 | 0.88
H3255 | 0.533
IA-LM | 0.71
HCC-44 | 0.969
A549 | 1.24
NCI-H1299 | 1.04
NCI-H1792 | 0.597

Same assay, conditions: first compound 0.06325 µM

Cell Line | relative viability
NCI-H727 | 0.642
NCI-H1650 | 1.3
EBC-1 | 0.437
NCI-H1703 | 1.89
NCI-H1993 | 0.982
SW 1573 | 1.05
NCI-H838 | 1.32
NCI-H520 | 1.49
NCI-H2126 | 0.909
EMC-BAC-2 | 1.03
NCI-H2085 | 0.975
Calu-6 | 0.895
HCC-366 | 0.776
NCI-H1666 | 0.954
NCI-H596 | 0.96
LK-2 | 1.03
NCI-H2087 | 1.2
SK-MES-1 | 1.4
H3255 | 0.421
IA-LM | 0.943
HCC-44 | 1.02
A549 | 1.43
NCI-H1299 | 1.08
NCI-H1792 | 0.621

Same assay, conditions: first compound 0.2 µM

Cell Line | relative viability
NCI-H727 | 0.541
NCI-H1650 | 1.14
EBC-1 | 0.545
NCI-H1703 | 1.24
NCI-H1993 | 0.921
SW 1573 | 1.05
NCI-H838 | 1.13
NCI-H520 | 1.08
NCI-H2126 | 0.914
EMC-BAC-2 | 1.15
NCI-H2085 | 1.17
Calu-6 | 0.782
HCC-366 | 1.1
NCI-H1666 | 0.913
NCI-H596 | 0.977
LK-2 | 1.04
NCI-H2087 | 1.07
SK-MES-1 | 1.3
H3255 | 0.581
IA-LM | 0.91
HCC-44 | 0.946
A549 | 1.22
NCI-H1299 | 1.04
NCI-H1792 | 0.564

Same assay, conditions: first compound 0.6325 µM

Cell Line | relative viability
NCI-H727 | 0.395
NCI-H1650 | 1.14
EBC-1 | 0.38
NCI-H1703 | 0.954
NCI-H1993 | 0.956
SW 1573 | 0.866
NCI-H838 | 1.02
NCI-H520 | 1.04
NCI-H2126 | 0.842
EMC-BAC-2 | 1.12
NCI-H2085 | 1.13
Calu-6 | 0.853
HCC-366 | 1.1
NCI-H1666 | 0.989
NCI-H596 | 0.883
LK-2 | 0.684
NCI-H2087 | 1.04
SK-MES-1 | 1.21
H3255 | 0.449
IA-LM | 0.96
HCC-44 | 1.02
A549 | 1.02
NCI-H1299 | 1.04
NCI-H1792 | 0.658

Same assay, conditions: first compound 2 µM

Cell Line | relative viability
NCI-H727 | 0.228
NCI-H1650 | 1.3
EBC-1 | 0.51
NCI-H1703 | 1
NCI-H1993 | 0.743
SW 1573 | 0.945
NCI-H838 | 1.11
NCI-H520 | 1.01
NCI-H2126 | 0.727
EMC-BAC-2 | 1.25
NCI-H2085 | 1.08
Calu-6 | 0.87
